From ChEMBL document CHEMBL2157895, “Selective Dual Inhibitors of the Cancer-Related Deubiquitylating Proteases USP7 and USP47” (ACS Med Chem Lett, 2012)
The source made the active and inactive calls. The calls are words filed in the database; no cut-off is given here.

Target: T1, Ubiquitin carboxyl-terminal hydrolase 5 (Homo sapiens) (UniProt P45974)
T1 sequence (whole entry): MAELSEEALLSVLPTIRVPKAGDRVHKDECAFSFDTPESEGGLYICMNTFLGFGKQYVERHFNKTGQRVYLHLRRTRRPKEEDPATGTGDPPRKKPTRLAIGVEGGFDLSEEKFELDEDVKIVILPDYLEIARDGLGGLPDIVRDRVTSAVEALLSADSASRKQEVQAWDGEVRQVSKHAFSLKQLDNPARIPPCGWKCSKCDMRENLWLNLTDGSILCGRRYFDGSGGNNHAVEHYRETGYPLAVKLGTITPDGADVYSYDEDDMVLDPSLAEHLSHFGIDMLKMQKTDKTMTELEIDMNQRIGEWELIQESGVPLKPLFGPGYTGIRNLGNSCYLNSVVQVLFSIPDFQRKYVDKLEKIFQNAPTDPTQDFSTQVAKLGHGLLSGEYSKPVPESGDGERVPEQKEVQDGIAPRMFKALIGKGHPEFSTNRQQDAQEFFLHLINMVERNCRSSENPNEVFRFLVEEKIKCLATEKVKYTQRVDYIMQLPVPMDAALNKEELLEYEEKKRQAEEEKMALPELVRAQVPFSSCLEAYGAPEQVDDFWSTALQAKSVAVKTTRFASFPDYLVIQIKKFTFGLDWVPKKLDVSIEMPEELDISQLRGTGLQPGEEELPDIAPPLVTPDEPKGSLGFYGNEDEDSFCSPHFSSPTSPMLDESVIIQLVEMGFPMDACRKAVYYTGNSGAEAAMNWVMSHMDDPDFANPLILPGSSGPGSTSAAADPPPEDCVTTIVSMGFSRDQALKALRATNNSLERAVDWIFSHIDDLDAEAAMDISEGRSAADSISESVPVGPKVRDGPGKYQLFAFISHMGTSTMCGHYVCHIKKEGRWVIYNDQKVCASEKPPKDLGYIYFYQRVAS
Assay: Inhibition of USP5 by Ub-CHOP reporter assay

- inhibition: inactive
Structure (SMILES): CS(=O)(=O)c1ccc(NC(=O)c2cc(C#N)c(Sc3c(Cl)cncc3Cl)s2)cc1
